Measured values as given in patent US20230346737A1, “COMPOUNDS AND METHODS FOR PREVENTION AND TREATMENT OF VIRUS INFECTIONS” (priority 2020, published 2023).
Where two headings read alike, the source gives them in different places.

Columns and labels:
SARS-CoV-2 3CLpro = target: T1, SARS-CoV-2 3CLpro (Severe acute respiratory syndrome coronavirus 2, UniProt P0DTD1); assay: Real-time FRET protease assay with SARS-CoV-2 3CLpro and dose-response curve analysis; format: biochemical
T1 construct: containing 0.25 μM SARS-CoV-2 3CLpro

[1] = target: T2, sodium taurocholate cotransporting polypeptide (NTCP) (Homo sapiens, UniProt Q14973); assay: PreS1-NTCP pull down assay; format: binding; conditions: 0, 10, 20 and 100 μM
T2 construct: expressed in transfected cells; host or cells: Huh7 (NTCP); E. coli BL21(DE3) (GST fusion bait)
T2 sequence (Q14973 1-349): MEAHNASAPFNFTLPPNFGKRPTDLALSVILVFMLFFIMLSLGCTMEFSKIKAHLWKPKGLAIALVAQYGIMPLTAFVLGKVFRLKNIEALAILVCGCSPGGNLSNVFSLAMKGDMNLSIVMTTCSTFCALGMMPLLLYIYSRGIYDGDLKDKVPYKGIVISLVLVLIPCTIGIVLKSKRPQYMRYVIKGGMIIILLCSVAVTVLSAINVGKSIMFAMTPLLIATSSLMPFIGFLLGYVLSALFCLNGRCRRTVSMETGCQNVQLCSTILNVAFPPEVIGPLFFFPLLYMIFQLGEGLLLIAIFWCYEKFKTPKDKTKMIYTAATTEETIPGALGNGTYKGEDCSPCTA
Procedure: Expression and purification of recombinant fusion proteins and the GST pull-down assay were performed as described previously. Briefly, expression of GST fusion proteins in E. coli BL21(DE3) was induced with 0.5 mM isopropyl-β-D-thiogalactopyranoside, then the bacterial cells were lysed by sonication at 4° C. in PBS containing 1% Triton X-100 (PBST) and separated into soluble and insoluble fractions by centrifugation at 13,800 g for 10 min at 4° C. To perform GST pull-down assays, the soluble fraction of bacterial lysates containing GST-fusion proteins was incubated for 3 hours at 4° C. with glutathione-Sepharose 4B beads (GE Healthcare Bio-Sciences), then the beads were washed 3 times with PBST before being incubated at 4° C. overnight with Huh7 cell lysate with overexpressed IA-NTCP prepared by lysis in PBST containing a protease inhibitor cocktail (1 mM PMSF, 10 μg/ml of aprotinin, 1 μg/ml of pepstatin A, 1 μg/ml of leupeptin). The beads were then washed with PBST, resuspended in sample buffer (12.5 mM Tris-HCl, pH 6.8, 2% SDS, 20% glycerol, 0.25% bromphenol blue, 5% b-mercaptoethanol), and subjected to SDS-polyacrylamide gel electrophoresis and examined by Western blot analysis.
To evaluate the effects of inhibitor on inhibiting HBV infection, cell lysis extracted from cells treated with AR101-DS3 or AR101-DS4.

[2] = Real-Time, 0-100 μM, pre-incubated 1 h at 37° C. with 0.25 μM 3CLpro, read-out: IC50 (μM), inhibition of SARS-CoV-2 3CLpro (Real-Time)

SMILES | IC50 (SARS-CoV-2 3CLpro; [2]) [µM] | further results
CC(=O)O[C@@H]1[C@@H](OC(C)=O)[C@@H](O)[C@H](Oc2c(-c3ccc(O)cc3)oc3cc(O)cc(O)c3c2=O)O[C@H]1C [ARH 007-DS4, kaempferol-3-O-(3,4-O-diacetyl-Alpha-L-rhamnopyranoside)] | 18.8 | 
CC(=O)O[C@@H]1[C@@H](O)[C@@H](OC(C)=O)[C@H](Oc2c(-c3ccc(O)cc3)oc3cc(O)cc(O)c3c2=O)O[C@H]1C [ARH 007-DS5, kaempferol-3-O-(2,4-O-diacetyl-Alpha-L-rhamnopyranoside)] | 48.2 | 
CC1=CCC(C(C)(C)O)C[C@@H]1O (stereo partly drawn) [ARH013-DS1, trans-p-menth-6-ene-2,8-diol] |  | IC50 (SARS-CoV-2 3CLpro): 32.9 µM
CC(=O)/C=C(O)/C=C/c1ccc(O)c(O)c1 [ARH 019-DS1, 6-(3,4-dihydroxyphenyl)-4-hydroxyhexa-3,5-dien-2-one] | 19.2 | 
C=C(CC[C@@H](C(=O)O)[C@H]1CC[C@@]2(C)C3=CC[C@H]4C(C)(C)[C@@H](O)CC[C@]4(C)C3=CC[C@]12C)C(C)C [AR101-DS4] |  | amount of NTCP from pull down assay [1]: significant decreased
O=c1cc(O)oc(/C=C/c2ccc(O)c(O)c2)c1 [ARH 019-DS2, 2-[(E)-2-(3,4-dihydroxyphenyl)ethenyl]-6-hydroxypyran-4-one] | 2.49 | 
C=C1CCCC(C)(C)C1Cc1c(O)cc2oc(-c3ccc(O)c(O)c3)cc(=O)c2c1O (stereo not drawn) [ARH 020-DS1, ugonin J] | 14.9 | 
CC1(C)CCC[C@@]2(C)Oc3c(O)ccc(-c4oc5cc(O)cc(O)c5c(=O)c4O)c3C[C@@H]12 [ARH 020-DS2, ugonin N] | 6.33 | 
C=C(CC[C@@H](C(=O)O)[C@H]1C[C@H](OC(C)=O)[C@@]2(C)C3=C(CC[C@]12C)[C@@]1(C)CC[C@H](O)C(C)(C)[C@@H]1CC3)C(C)C [AR101-DS3] |  | amount of NTCP from pull down assay [1]: dose dependent increase
